Patent US20250313544A1, “INHIBITORS OF GLUTATHIONE S-TRANSFERASE ZETA 1 (GSTZ1) AND METHODS OF USE” (H. LEE MOFFITT CANCER CENTER AND RESEARCH INSTITUTE, INC., priority 2022, published 2025)

What was measured:
[1] = test system: H1792 cells harboring KRAS G12C; test: Cell viability assay (CellTiter-Glo) in H1792 cells; assay type: cell-based, human; conditions: probe combined with sotorasib in H1792 cells, dose of 50 μM (FIG. 9D)
Method: (§1) Cells were seeded in Corning 384-well black walled/clear bottom microplates with a density of 1,000 cells/well and treated with indicated drugs and concentrations following cell attachment for 24 h. After 72 h or 96 h, as indicated, cell viability was evaluated with CellTiter-Glo (Promega, Madison, WI) according to manufacturer's recommendations. An M5 Spectramax plate reader (Molecular devices) was used to read the plates with 500 ms integration. Data was processed and analyzed using Excel and GraphPad Prism 9.0.

[2] = test system: H520 cells harboring amplified FGFR1; test: Cell viability assay (CellTiter-Glo) in H520 cells; assay type: cell-based, human; conditions: probe combined with infigratinib in H520 cells, dose of 5 μM (FIG. 9E)
Method: as §1

GSTZ1 = target: T1, GSTZ1 (Homo sapiens, UniProt O43708); test: GSTZ1 pulldown and competition after photocrosslinking in live H1792 cells (biotin enrichment, immunoblotting); assay type: binding; set-up: endogenous in cells; host or cells: H1792 cells; conditions: UV crosslinking
T1 sequence (O43708 1-216): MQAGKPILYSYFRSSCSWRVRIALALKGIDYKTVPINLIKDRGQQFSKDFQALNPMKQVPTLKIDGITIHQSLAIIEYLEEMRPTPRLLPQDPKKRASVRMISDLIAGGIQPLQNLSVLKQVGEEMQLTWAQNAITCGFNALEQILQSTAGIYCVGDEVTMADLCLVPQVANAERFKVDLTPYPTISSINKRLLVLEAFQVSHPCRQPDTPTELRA
Method: Cells were harvested and washed with PBS and lysed in RIPA buffer (150 mM NaCl, 50 mM Tris-HCl, pH 7.4, 5 mM EDTA, 1% NP40, 0.1% SDS) containing complete protease inhibitor cocktail (Roche, 11873580001) and phosphatase inhibitor cocktail 2 (Sigma, P5726) for 30 min on ice. The Coomassie Plus (Bradford) protein assay (23236, ThermoFisher, MA) was conducted for measuring concentrations of resulting supernatants. Samples were prepared by adding 4× Laemmli sample buffer and heat-denaturing for 5 minutes. All samples or total cell lysates were resolved by SDS-PAGE and then transferred onto PVDF membranes. 5% non-fat milk was utilized for blocking of non-specific binding. Blots were incubated with primary antibodies overnight at 4° C. For immunoblotting, primary antibodies were purchased from Cell Signaling: PARP1 (#9542), cleaved caspase-3 (#9661), Phospho-tyrosine Mouse mAb (P-Tyr-100, #9411), FGFR1 (#9740). GAPDH (#60004-1-Ig) and GSTZ1 (#14889-1-AP) were purchased from Proteintech. […] Densitometry was analyzed using Image Studio Lite Ver 5.2.
Cells were grown in 10 cm dishes to ˜90% confluence at the time of treatment. […] Protein concentrations were determined using Bradford assays. […]

C#CCCC1(CCC(=O)N2CCC(COc3nc4ccccc4nc3C)CC2)N=N1 [Probe 17, 3-(3-(but-3-yn-1-yl)-3H-diazirin-3-yl)-1-(4-(((3-methylquinoxalin-2-yl)oxy)methyl)piperidin-1-yl)propan-1-one]
sensitization of cells towards sotorasib [1]: significantly enhanced the sensitivity | sensitization of cells towards infigratinib [2]: significantly enhanced the sensitivity | GSTZ1 enrichment by probe (affinity enrichment, immunoblotting with GSTZ1 antibody) (GSTZ1): specifically enriched
